Data as given in patent US20160250285A1, “NEUROPROTECTIVE PEPTIDES” (priority 2013, published 2016).
Entries after “also recorded” stand apart in the source; their conditions may differ. Ends that are not written are not given here.

What was measured:
[1] = tested on: primary cortical neuronal cultures
Method: Briefly, cortical tissue from E18-E19 Sprague-Dawley rats was dissociated in Dulbecco's modified Eagle medium (DMEM; Invitrogen, Australia) supplemented with 1.3 mM L-cysteine, 0.9 mM NaHCOa, 10 units/ml papain (Sigma, USA) and 50 units/ml DNase (Sigma) and washed in cold DMEM/10% horse serum. Neurons were resuspended in Neurobasal (Invitrogen) containing 2% B27 supplement (B27; Invitrogen). Before seeding, 96-well sized glass wells (6 mm diameter, ProTech, Australia) or 96-well plastic plates (ProSciTech, Australia) were coated with poly-D-lysine overnight ([…]: 50 mg/mL; 70-150 K, Sigma). […] Neurons were plated to obtain ≈10,000 viable neurons for each well on day in vitro 11-12. […] On day in vitro 4 one third of the culture medium was removed and replaced with fresh Neurobasal/2% B27 containing the mitotic inhibitor, cytosine arabinofuraNOside (1 mM final concentration; Sigma). On day in vitro 8 one half of the culture medium was replaced with Neurobasal/2% B27.
To induce excitotoxicity, 50 μl of Neurobasal/2% B27 containing glutamic acid (200 μM) or kainic acid (400 μM) or NMDA (200 μM) was added to the culture wells (100 μM glutamic acid, 200 μM kainic acid and NMDA 100 μM final concentration). Cultures were incubated at 37° C. in the CO2 incubator for 5 minutes for glutamic acid, 45 minutes for kainic acid and 10 minutes for NMDA exposure, after which time the media was replaced with 100 μl of 50% Neurobasal/2% N2 supplement (Invitrogen) and 50% balanced salt solution (BSS; see below). Cultures were incubated for a further 24 hours at 37° C. in the CO2 incubator. The untreated controls with or without glutamic acid or kainic acid treatment received the same wash steps and media additions.
Following this step, cultures were treated as described above. Untreated controls with or without glutamic acid exposure received the same wash steps and media additions. In addition, a post-glutamic acid exposure CPP treatment (5 μM) experiment was performed for the R9 peptide and the JNKI-1D-TAT control peptide.
For pre-glutamic acid exposure experiments, neurons were exposed to peptide(s) for a 10 minute period, immediately before or 1, 2, 3, 4 or 5 hours prior to glutamic acid exposure. […] At the relevant peptide pre-treatment time, media was removed and replaced with 100 μl of Neurobasal/2%. […] Following 5-minute glutamic acid exposure, neuronal culture wells were treated as described above. For all experiments untreated controls with or without glutamic acid treatment underwent the same incubation steps and media additions.
Heparin (for injection) was obtained from Pfizer (1000 IU/ml). Two different heparin experiments were performed: 1. Peptides were incubated with heparin (20 IU/ml) in Neurobasal/B27 for 5 minutes at room temperature, before addition to culture wells (50 μl) for 15 minutes at 37° C. in the CO2 incubator. Following the incubation period, media in wells was removed and replaced with 100 μl of Neurobasal/2% B27 containing glutamic acid (100 μM), and subsequently treated as described above; 2. Media in wells was replaced with Neurobasal/2% B27 containing heparin (50 μl; 40 IU/ml) and incubated for 5 minutes at 37° C. in the CO2 incubator. After the incubation period, peptides or glutamate receptor blockers (MK801/CNQX) in Neurobasal/2% B27 (50 μl) were added to the culture wells and cultures incubated for a further 10 minutes at 37° C. in the CO2 incubator. Following the incubation period, media in wells was removed and replaced with 100 μl of Neurobasal/2% B27 containing glutamic acid (100 μM), and subsequently treated as described above. For all experiments, non-heparin treated peptide controls with glutamic acid treatment underwent the same incubation steps and media additions.
Twenty-four hours after insult, neuronal cultures were examined by light microscopy for qualitative assessment of neuronal cell viability.

[2] = tested on: intracellular calcium influx in neuronal cultures; experiment: Intracellular calcium influx (Fura-2 AM) after glutamic acid; format: cell-based, rat; settings: peptide 5 μM for 10 min, removed before 100 μM glutamic acid (FIG. 44)
Method: Fura-2 AM was used for intracellular calcium assessment. Representative fluorescent Fura-2 AM tracers; fluorescence intensity (FI) of neuronal cultures 30 sec before and following addition (arrow) of glutamic acid (100 μM final concentration). Peptides or glutamate receptor blockers were added to neuronal cultures for 10 min and removed (time 0) before glutamic acid. Values are mean±SE; n=3. Peptide concentration was 5 μM.
Briefly, cortical tissue from E18-E19 Sprague-Dawley rats was dissociated in Dulbecco's modified Eagle medium (DMEM; Invitrogen, Australia) supplemented with 1.3 mM L-cysteine, 0.9 mM NaHCOa, 10 units/ml papain (Sigma, USA) and 50 units/ml DNase (Sigma) and washed in cold DMEM/10% horse serum. Neurons were resuspended in Neurobasal (Invitrogen) containing 2% B27 supplement (B27; Invitrogen). Before seeding, 96-well sized glass wells (6 mm diameter, ProTech, Australia) or 96-well plastic plates (ProSciTech, Australia) were coated with poly-D-lysine overnight (50 ml/well: 50 mg/mL; 70-150 K, Sigma). Excess poly-D-lysine solution was then removed and replaced with Neurobasal (containing 2% B27; 4% fetal bovine serum; 1% horse serum; 62.5 mM glutamate; 25 mM 2-mercaptoethanol; and 30 mg/mL streptomycin and 30 mg/mL penicillin). Neurons were plated to obtain ≈10,000 viable neurons for each well on day in vitro 11-12. Neuronal cultures were maintained in a CO2 incubator (5% CO2, 95% air balance, 98% humidity) at 37° C. On day in vitro 4 one third of the culture medium was removed and replaced with fresh Neurobasal/2% B27 containing the mitotic inhibitor, cytosine arabinofuraNOside (1 mM final concentration; Sigma). On day in vitro 8 one half of the culture medium was replaced with Neurobasal/2% B27. Cultures were used on day in vitro 11 or 12 after which time they routinely consist of >97% neurons and 1-3% astrocytes (Meloni et al. 2001).

[3] = tested on: permanent middle cerebral artery occlusion (MCAO) stroke model; experiment: Rat permanent middle cerebral artery occlusion (MCAO) stroke model; format: in vivo; settings: 1 μmol/kg intravenously 30 min post-MCAO
Method: Administration of peptide (DR9: rrrrrrrrr-NH2; R12, R15, R18, protamine sulphate; protamine) or vehicle (saline: 0.9% NaCl) treatment solution was performed at 30 min post-MCAO. The peptide treatment comprised DR9 in saline (600 μl) to provide an intravenous loading dose of 1 μmol/kg or 1000 nmol/kg given over 5-6 min via the right jugular vein.
This study was approved by the Animal Ethics Committee of the University of Western Australia. Male Sprague Dawley rats weighing 270 g to 350 g were kept under controlled housing conditions with 12 hour light-dark cycle with free access to food and water. Experimental animals were fasted overnight and subjected to permanent middle cerebral artery occlusion (MCAO) as follows.
Anaesthesia was induced with 4% isoflurane and a 2:1 mix of N2O and O2 via mask. Anaesthesia was maintained at 1.7-2% isoflurane. Cerebral blood flow (CBF) was monitored continuously using laser Doppler flowmetry (Blood FlowMeter, AD Instruments, Sydney, Australia). The probe was located 1 mm caudal and 4 mm lateral (right) to the bregma. A cannula was inserted in the right femoral artery to continuously monitor blood pressure and to provide samples for blood glucose and blood gas readings. Blood glucose was measured using a glucometer (MediSense Products, Abbott Laboratories, Bedford, Mass., USA) and blood gases were measured using a blood gas analyser (ABL5, Radiometer, Copenhagen, Denmark). Blood pressure was maintained at 80-100 mmHg. During surgery, rectal temperature was maintained at 37±0.5° C. and warming applied with a fan heater when necessary. For intravenous infusions, a length of PVC line primed with heparinised saline was tied in place in the right jugular vein, then externalised through a dorsal mid-scapular incision to a tether/swivel system (Instech Laboratories, Philadelphia, USA) designed to permit free movement.
The right common carotid artery (CCA) was exposed via a ventral neck incision. […] The isolated section of the ECA was ligated and cauterised to create a stump. The carotid body was removed and the pterygopalatine artery was ligated. A 4-0 nylon monofilament with a 0.39 mm diameter silicone tip (Doccol, Redlands, Calif., USA) was inserted through the ECA stump into the CCA and advanced rostrally into the internal carotid artery (ICA) until the laser Doppler flowmetry recorded a >30% decrease from baseline of cerebral blood flow. The monofilament was secured in two places (at the base of the ECA stump and on the ICA) for the remainder of the experiment. Animals were given post-operative analgesia consisting of pethidine (3 mg/kg intramuscular) and bupivacaine (1.5 mg/kg subcutaneously) at head and leg incision sites.
Post-surgery animals were allowed to recover in a climate-controlled chamber and their core body temperature monitored and maintained at 37±0.5° C. by a cooling/heating fan when required for 3-4 hours.
Animals were sacrificed 24 hours post-MCAO with intra-peritoneal injections of sodium pentobarbitone (900 mg/kg). […] Slices were scanned and images were analysed by an operator blind to treatment status using ImageJ 3rd edition (NIH, USA). The total infarct volume was determined by adding the areas of infarcted tissue on both sides of the 2 mm sections. These measured areas were multiplied by half slice thickness (1 mm), and corrected for cerebral oedema by multiplying the ratio of affected to normal hemisphere areas. […]

[4] = tested on: primary cortical neuronal cultures; experiment: In vitro ischemia / oxygen-glucose deprivation (OGD) model, neurons; format: cell-based, rat; settings: for neuroprotection when added for 15 minutes after OGD: FIGS. 31, 20, 22, 1 μM and 5 μM in FIG. 31
[5] = tested on: primary rat astrocytes; experiment: Astrocyte toxicity model; format: cell-based; settings: 2.5 to 10 μM, 24 hour exposure (FIG. 43)
Method: A brain endothelial cell line (bEND3) and a neuroblastoma cell line (SH-SY5Y) were also used for some experiments. bEND3 and SH-SY5Y cells were cultured using standard techniques in DMEM plus 5 or 15% foetal calf serum. Rat primary astrocytes were obtained and cultured as described for cortical neurons except DMEM plus 10% foetal calf serum was used instead of Neurobasal/2% B27, and the mitotic inhibitor, cytosine arabinofuraNOside was not used.
For neuronal cultures peptides were added to culture wells (96-well plate format) by removing media and adding 100 μl of 50% Neurobasal/2% N2 supplement and 50% BSS containing CPPs, JNKI-1 D-TAT or TAT-NR2B9c. Control cultures received of 50% Neurobasal/2% N2 supplement and 50% BSS media only. Cultures were incubation at 37° C. in the CO2 incubator for 20 hours, after which time cell viability was assessed using the MTS assay. For bEND3 cultures, peptides were added to culture wells (96-well plate format) by removing media and adding 100 μl of DMEM/2% FCS containing peptide. Control cultures received 100 μl of DMEM/2% FCS only, Cultures were incubation at 37° C. in the CO2 incubator for 0.5, 1 or 2 hours, after which time cell viability was assessed using the MTS assay. […] Cultures were incubation at 37° C. in the CO2 incubator for 24 hours, after which time cell viability was assessed using the MTS assay.
Twenty-four hours after insult, neuronal cultures were examined by light microscopy for qualitative assessment of neuronal cell viability. Neuronal viability was quantitatively measured by 3-(4,5,dimethyliazol-2-yl)-5-(3-carboxymethoxy-phenyl)-2-(4-sulfophenyl)-2H-tetrazolium salt (MTS) assay (Promega, Australia). The MTS assay measures the cellular conversion of the tetrazolium salt to a water-soluble brown formazan salt, which is detected spectrophotometrically at 490 nm. MTS absorbance data were converted to reflect proportional cell viability relative to both the untreated and treated controls, with the untreated control taken as 100% viability, and presented as mean±SEM. […]

[6] = tested on: brain endothelial cells (bEND3 cells); experiment: In vitro ischemia/OGD model, bEND3 cells; format: cell-based; settings: peptide during/after ischemia (FIG. 3c) or 15 min before OGD (FIGS. 23, 24)
Method: The in vitro ischemia model was also used for bEND3 cells, SH-SY5Y cells, and astrocytes. For bEND3 cells anaerobic incubation was extended to 2-3 hours and upon removal from the anaerobic incubator, 60 μl of DMEM/2% FCS was added to wells. […] Upon removal from the anaerobic incubator, 60 μl of DMEM/2% FCS was added to wells.
Twenty-four hours after insult, neuronal cultures were examined by light microscopy for qualitative assessment of neuronal cell viability. Neuronal viability was quantitatively measured by 3-(4,5,dimethyliazol-2-yl)-5-(3-carboxymethoxy-phenyl)-2-(4-sulfophenyl)-2H-tetrazolium salt (MTS) assay (Promega, Australia). The MTS assay measures the cellular conversion of the tetrazolium salt to a water-soluble brown formazan salt, which is detected spectrophotometrically at 490 nm. MTS absorbance data were converted to reflect proportional cell viability relative to both the untreated and treated controls, with the untreated control taken as 100% viability, and presented as mean±SEM. For studies using astrocytes, bEND3, and SH-Y5Y cells, raw MTS data was used to generate graphs. Viability data was analysed by ANOVA, followed by post-hoc Fischer's PLSD test, with P<0.05 values considered statistically significant. Four- to six wells were used in all assays.

Molecule: N=C(N)NCCC[C@H](NC(=O)[C@H](CCCNC(=N)N)NC(=O)[C@H](CCCNC(=N)N)NC(=O)[C@H](CCCNC(=N)N)NC(=O)[C@H](CCCNC(=N)N)NC(=O)[C@H](CCCNC(=N)N)NC(=O)[C@H](CCCNC(=N)N)NC(=O)[C@H](CCCNC(=N)N)NC(=O)[C@H](CCCNC(=N)N)NC(=O)[C@H](CCCNC(=N)N)NC(=O)[C@H](CCCNC(=N)N)NC(=O)[C@@H](N)CCCNC(=N)N)C(=O)O [Peptide R12]
- neuroprotection when added immediately after glutamic acid exposure ([1]; 0 min post-insult (FIG. 1d)): highly effective
- neuroprotection, milder insult ([1]; FIG. 1i, comparison at 0.5 μM and 1 μM): more effective than R9
- neuroprotection, peptide present during the 5 minute glutamic acid insult only ([1]; FIG. 28): effective
- neuroprotection, 10 minute pre-exposure removed immediately prior to insult ([1]; FIG. 29, FIG. 14): effective
- neuroprotection, peptide for 10 minutes, 1 to 4 hours prior to glutamic acid insult ([1]; FIG. 30): effective
- effect of heparin on neuroprotective action ([1]; heparin 20 IU/ml with peptide or 40 IU/ml on cultures (FIGS. 39, 40)): blocks neuroprotective actions
- IC50 ([1]; read-out: IC50: Glutamic acid model, Table 4, polyarginine peptides, from dose response graph FIG. 1e): 440 nM
- calcium influx after glutamic acid [2]: to varying degrees reduced calcium influx
- neuroprotective activity in vivo [3]: possessed neuroprotective activity in vivo
- neuroprotection, peptide for 10 minutes, 1 to 3 hours prior to OGD ([4]; FIG. 32): effective
- neuroprotection when added for 15 minutes after OGD [4]: Neuroprotection is displayed
- neuroprotection when added post-in vitro ischemia/OGD ([4]; added after anaerobic incubation until experiment end (FIGS. 3b, 16, 17)): displayed neuroprotective effects; also recorded: effective

Molecule: VSRRRRRRGGRRRR [LMWP]
- astrocyte cell death following peptide exposure [5]: did not cause significant astrocyte cell death

Molecule: PRRRRRSSSRPIRRRRRPRASRRRRRGGRRRR [Ptm1]
- astrocyte cell death following peptide exposure [5]: did not cause significant astrocyte cell death

Molecule: PRRRRSSSRPVRRRRRPRVSRRRRRRGGRRRR [Ptm5]
- astrocyte cell death following peptide exposure [5]: did not cause significant astrocyte cell death

Molecule: PRRRRASRRIRRRRRPRVSRRRRRGGRRRR [Ptm4]
- neuroprotection (neuronal viability) ([1]; peptide 15 min prior to and during glutamic acid exposure, viability 24 h, MTS): neuroprotective
- protection of bEND3 cells (cell death / viability after in vitro ischemia/OGD) [6]: significantly increased cell viability
- protection of bEND3 cells (cell death / viability after in vitro ischemia/OGD) ([6]; listed as ptm4): protective
- neuroprotection when added for 15 minutes after OGD [4]: neuroprotective
- neuroprotection in the OGD model (overall statement) ([4]; discussion summary): neuroprotective
